# Assay results: EP4786487A1, “PEPTIDE” (Peptidream Inc, priority 2023, dated 2025)
# Starred links: 1 amine or outer side, 2 acyl side, 3 side chain; linkers in the order of their positions; H or OH if unused. Positions of bridges follow the written chain, without caps; N, C: chain ends. Non-standard residues stand in square brackets, D forms with d. Residues, ends and D or L forms follow the SMILES beside them. Phe(3-OCH2COOH) = N[C@@H](Cc1cccc(OCC(=O)O)c1)C(=O)O; Phe(4-COOH) = N[C@@H](Cc1ccc(C(=O)O)cc1)C(=O)O; Trp(7-aza) = N[C@@H](Cc1c[nH]c2ncccc12)C(=O)O; Bip = N[C@@H](Cc1ccc(-c2ccccc2)cc1)C(=O)O; Gly(N(CH2)3COOH) = O=C(O)CCCNCC(=O)O; X1 = CCCCCCC[C@H](N[*:1])C(=O)[*:2]; NMeF = CN[C@@H](Cc1ccccc1)C(=O)O; 4Pal = N[C@@H](Cc1ccncc1)C(=O)O; NMeA = CN[C@@H](C)C(=O)O; Sar = CNCC(=O)O
# How the values were obtained:
# Assay type in all cases: cell-based
# Myostatin [1] = molecular target: T1, Myostatin (Homo sapiens, UniProt O14793); assay: Reporter gene assay for myostatin signaling in HepG2 cell line, Evaluation Procedure (1), myostatin inhibition; details: Method A: Myostatin 10 ng/mL; read-out: IC50 (Luciferase) Myostatin HepG2
# T1 construct: active myostatin (also called mature myostatin) is a homodimer consisting of two C-terminal growth factor domains; purchased R&D systems 788-G8/CF
# T1 sequence (O14793 267-375): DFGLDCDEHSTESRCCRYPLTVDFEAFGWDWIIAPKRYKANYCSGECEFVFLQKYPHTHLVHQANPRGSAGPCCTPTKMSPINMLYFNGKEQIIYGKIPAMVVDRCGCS
# Procedure, shortened: (§1)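 IC50 derived from One-Glo luciferase luminescence after 20–24 h at 37 °C. Peptides titrated 4-fold at 0.006–100 nmol/L against myostatin or 0.12–2000 nmol/L against GDF-11 in HepG2 cells carrying a transfected CAGA12-luciferase reporter, kept in 0.1% BSA EMEM.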
# Myostatin [2] = assay: as above; details: Method A; GDF-11 IC50 versus Myostatin IC50
# Procedure, shortened: as §1
# GDF-11 = molecular target: T2, GDF-11 (Homo sapiens, UniProt O95390); assay: Reporter gene assay for myostatin signaling in HepG2 cell line, Evaluation Procedure (1), GDF-11 inhibition; details: Method A: GDF-11 10 ng/mL; read-out: IC50 (Luciferase) GDF-11 HepG2
# T2 construct: purchased R&D systems 1958-GD-G8/CF
# T2 sequence (O95390 299-407): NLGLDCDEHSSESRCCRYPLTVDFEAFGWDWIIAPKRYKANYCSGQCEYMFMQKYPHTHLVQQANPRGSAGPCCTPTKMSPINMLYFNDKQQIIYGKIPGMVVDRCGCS
# Procedure, shortened: as §1
SMILES,IC50 (Myostatin [1]),IC50 (GDF-11),Selectivity (Myostatin [2])
CCCCCCC[C@@H]1NC(=O)[C@H](Cc2ccccc2)N(C)C(=O)[C@H](CCCNC(=N)N)NC(=O)[C@H](Cc2ccc(C(=O)O)cc2)NC(=O)[C@H](Cc2ccncc2)NC(=O)CN(C)C(=O)[C@H]([C@@H](C)CC)NC(=O)[C@H](Cc2ccccc2)N(C)C(=O)[C@H](Cc2ccc(O)cc2)NC(=O)[C@H](Cc2c[nH]c3ccccc23)NC(=O)[C@H](C)NC(=O)CN(CCCC(=O)O)C(=O)CSC[C@H](C(=O)O)NC(=O)[C@H](Cc2ccccc2)N(C)C(=O)[C@H](C)N(C)C1=O [Myostatin_99_v169] ({CH2CO}-[Gly(N(CH2)3COOH)]AWY[NMeF]I[Sar][4Pal][Phe(4-COOH)]R[NMeF][X1][NMeA][NMeF][dC]-OH; thioether N-15),1.2 nM,372 nM,310
CCCCCCC[C@@H]1NC(=O)[C@H](Cc2ccccc2)N(C)C(=O)[C@H](CCCNC(=N)N)NC(=O)[C@H](Cc2ccc(C(=O)O)cc2)NC(=O)[C@H](Cc2ccncc2)NC(=O)CN(C)C(=O)[C@H]([C@@H](C)CC)NC(=O)[C@H](Cc2ccccc2)N(C)C(=O)[C@H](Cc2ccc(O)cc2)NC(=O)[C@H](Cc2c[nH]c3ncccc23)NC(=O)[C@H](C)NC(=O)CN(CCCC(=O)O)C(=O)CSC[C@H](C(=O)O)NC(=O)[C@H](Cc2ccccc2)N(C)C(=O)[C@H](C)N(C)C1=O [Myostatin_99_v170] ({CH2CO}-[Gly(N(CH2)3COOH)]A[Trp(7-aza)]Y[NMeF]I[Sar][4Pal][Phe(4-COOH)]R[NMeF][X1][NMeA][NMeF][dC]-OH; thioether N-15),3.3 nM,215 nM,65
CC[C@H](C)[C@@H]1NC(=O)[C@H](Cc2ccccc2)N(C)C(=O)[C@H](Cc2ccc(O)cc2)NC(=O)[C@H](Cc2c[nH]c3ccccc23)NC(=O)[C@H](C)NC(=O)[C@H](C)NC(=O)CSC[C@H](C(=O)O)NC(=O)[C@H](Cc2ccccc2)N(C)C(=O)[C@H](C)N(C)C(=O)[C@H](CC(C)C)NC(=O)[C@H](Cc2ccccc2)N(C)C(=O)[C@H](CCCNC(=N)N)NC(=O)[C@H](Cc2ccc(C(=O)O)cc2)NC(=O)[C@H](Cc2ccc(O)cc2)NC(=O)CN(C)C1=O [Myostatin_99_v172] ({CH2CO}-AAWY[NMeF]I[Sar]Y[Phe(4-COOH)]R[NMeF]L[NMeA][NMeF][dC]-OH; thioether N-15),5.1 nM,173 nM,34
CCCCCCC[C@@H]1NC(=O)[C@H](Cc2ccccc2)N(C)C(=O)[C@H](CCCNC(=N)N)NC(=O)[C@H](Cc2ccc(C(=O)O)cc2)NC(=O)[C@H](Cc2ccc(O)cc2)NC(=O)CN(C)C(=O)[C@H]([C@@H](C)CC)NC(=O)[C@H](Cc2ccccc2)N(C)C(=O)[C@H](Cc2ccc(O)cc2)NC(=O)[C@H](Cc2c[nH]c3ccccc23)NC(=O)[C@H](CO)NC(=O)CN(CCCC(=O)O)C(=O)CSC[C@H](C(=O)O)NC(=O)[C@H](Cc2ccccc2)N(C)C(=O)[C@H](C)N(C)C1=O [Myostatin_99_v173] ({CH2CO}-[Gly(N(CH2)3COOH)]SWY[NMeF]I[Sar]Y[Phe(4-COOH)]R[NMeF][X1][NMeA][NMeF][dC]-OH; thioether N-15),5.5 nM,232 nM,42
CCCCCCC[C@@H]1NC(=O)[C@H](Cc2ccccc2)N(C)C(=O)[C@H](CCCNC(=N)N)NC(=O)[C@H](Cc2ccc(C(=O)O)cc2)NC(=O)[C@H](Cc2cccc(OCC(=O)O)c2)NC(=O)CN(C)C(=O)[C@H]([C@@H](C)CC)NC(=O)[C@H](Cc2ccccc2)N(C)C(=O)[C@H](Cc2ccc(O)cc2)NC(=O)[C@H](Cc2c[nH]c3ccccc23)NC(=O)[C@H](C)NC(=O)[C@H](C)NC(=O)CSC[C@H](C(=O)O)NC(=O)[C@H](Cc2ccccc2)N(C)C(=O)[C@H](C)N(C)C1=O [Myostatin_99_v174] ({CH2CO}-AAWY[NMeF]I[Sar][Phe(3-OCH2COOH)][Phe(4-COOH)]R[NMeF][X1][NMeA][NMeF][dC]-OH; thioether N-15),1.7 nM,226 nM,133
CC[C@H](C)[C@@H]1NC(=O)[C@H](Cc2ccccc2)N(C)C(=O)[C@H](Cc2ccc(O)cc2)NC(=O)[C@H](Cc2c[nH]c3ccccc23)NC(=O)[C@H](CO)NC(=O)[C@H](C)NC(=O)CSC[C@H](C(=O)O)NC(=O)[C@H](Cc2ccccc2)N(C)C(=O)[C@H](C)N(C)C(=O)[C@H](CC(C)C)NC(=O)[C@H](Cc2ccccc2)N(C)C(=O)[C@H](CCCNC(=N)N)NC(=O)[C@H](Cc2ccc(C(=O)O)cc2)NC(=O)[C@H](Cc2ccc(O)cc2)NC(=O)CN(C)C1=O [Myostatin_99_v175] ({CH2CO}-ASWY[NMeF]I[Sar]Y[Phe(4-COOH)]R[NMeF]L[NMeA][NMeF][dC]-OH; thioether N-15),16.4 nM,399 nM,24
CC[C@H](C)[C@@H]1NC(=O)[C@H](Cc2ccccc2)N(C)C(=O)[C@H](Cc2ccc(O)cc2)NC(=O)[C@H](Cc2ccc(-c3ccccc3)cc2)NC(=O)[C@H](C)NC(=O)CN(CCCC(=O)O)C(=O)CSC[C@H](C(=O)O)NC(=O)[C@H](Cc2ccccc2)N(C)C(=O)[C@H](C)N(C)C(=O)[C@H](CC(C)C)NC(=O)[C@H](Cc2ccccc2)N(C)C(=O)[C@H](CCCNC(=N)N)NC(=O)[C@H](Cc2ccc(C(=O)O)cc2)NC(=O)[C@H](Cc2ccc(O)cc2)NC(=O)CN(C)C1=O [Myostatin_99_v176] ({CH2CO}-[Gly(N(CH2)3COOH)]A[Bip]Y[NMeF]I[Sar]Y[Phe(4-COOH)]R[NMeF]L[NMeA][NMeF][dC]-OH; thioether N-15),17.3 nM,377 nM,22
CCCCCCC[C@@H]1NC(=O)[C@H](Cc2ccccc2)N(C)C(=O)[C@H](CCCNC(=N)N)NC(=O)[C@H](Cc2ccc(C(=O)O)cc2)NC(=O)[C@H](Cc2ccc(O)cc2)NC(=O)CN(C)C(=O)[C@H]([C@@H](C)CC)NC(=O)[C@H](Cc2ccccc2)N(C)C(=O)[C@H](Cc2ccc(O)cc2)NC(=O)[C@H](Cc2ccc(-c3ccccc3)cc2)NC(=O)[C@H](C)NC(=O)CN(CCCC(=O)O)C(=O)CSC[C@H](C(=O)O)NC(=O)[C@H](Cc2ccccc2)N(C)C(=O)[C@H](C)N(C)C1=O [Myostatin_99_v179] ({CH2CO}-[Gly(N(CH2)3COOH)]A[Bip]Y[NMeF]I[Sar]Y[Phe(4-COOH)]R[NMeF][X1][NMeA][NMeF][dC]-OH; thioether N-15),1.5 nM,163 nM,108

# Further lines, with some results ahead:
IC50 (Myostatin [1]),IC50 (GDF-11),SMILES,Selectivity (Myostatin [2])
44.7 nM,909 nM,CC[C@H](C)[C@@H]1NC(=O)[C@H](Cc2ccccc2)N(C)C(=O)[C@H](Cc2ccc(O)cc2)NC(=O)[C@H](Cc2c[nH]c3ccccc23)NC(=O)[C@H](CO)NC(=O)CN(CCCC(=O)O)C(=O)CSC[C@H](C(=O)O)NC(=O)[C@H](Cc2ccccc2)N(C)C(=O)[C@H](C)N(C)C(=O)[C@H](CC(C)C)NC(=O)[C@H](Cc2ccccc2)N(C)C(=O)[C@H](CCCNC(=N)N)NC(=O)[C@H](Cc2ccc(C(=O)O)cc2)NC(=O)[C@H](Cc2ccc(O)cc2)NC(=O)CN(C)C1=O [Myostatin_99_v171] ({CH2CO}-[Gly(N(CH2)3COOH)]SWY[NMeF]I[Sar]Y[Phe(4-COOH)]R[NMeF]L[NMeA][NMeF][dC]-OH; thioether N-15),20
12.1 nM,250 nM,CC[C@H](C)[C@@H]1NC(=O)[C@H](Cc2ccccc2)N(C)C(=O)[C@H](Cc2ccc(O)cc2)NC(=O)[C@H](Cc2c[nH]c3ccccc23)NC(=O)[C@H](C)NC(=O)CN(CCCC(=O)O)C(=O)CSC[C@H](C(=O)O)NC(=O)[C@H](Cc2ccccc2)N(C)C(=O)[C@H](C)N(C)C(=O)[C@H](CC(C)C)NC(=O)[C@H](Cc2ccccc2)N(C)C(=O)[C@H](CCCNC(=N)N)NC(=O)[C@H](Cc2ccc(C(=O)O)cc2)NC(=O)[C@H](Cc2ccc(O)cc2)NC(=O)[C@H](C)N(C)C1=O [Myostatin_99_v178] ({CH2CO}-[Gly(N(CH2)3COOH)]AWY[NMeF]I[NMeA]Y[Phe(4-COOH)]R[NMeF]L[NMeA][NMeF][dC]-OH; thioether N-15),21
4.5 nM,194 nM,CCCCCCC[C@@H]1NC(=O)[C@H](Cc2ccccc2)N(C)C(=O)[C@H](CCCNC(=N)N)NC(=O)[C@H](Cc2ccc(C(=O)O)cc2)NC(=O)[C@H](Cc2ccc(O)cc2)NC(=O)[C@H](C)N(C)C(=O)[C@H]([C@@H](C)CC)NC(=O)[C@H](Cc2ccccc2)N(C)C(=O)[C@H](Cc2ccc(O)cc2)NC(=O)[C@H](Cc2c[nH]c3ccccc23)NC(=O)[C@H](C)NC(=O)CN(CCCC(=O)O)C(=O)CSC[C@H](C(=O)O)NC(=O)[C@H](Cc2ccccc2)N(C)C(=O)[C@H](C)N(C)C1=O [Myostatin_99_v181] ({CH2CO}-[Gly(N(CH2)3COOH)]AWY[NMeF]I[NMeA]Y[Phe(4-COOH)]R[NMeF][X1][NMeA][NMeF][dC]-OH; thioether N-15),43
53 nM,1360 nM,CC[C@H](C)[C@@H]1NC(=O)[C@H](Cc2ccccc2)N(C)C(=O)[C@H](Cc2ccc(O)cc2)NC(=O)[C@H](Cc2ccc(-c3ccccc3)cc2)NC(=O)[C@H](C)NC(=O)CN(CCCC(=O)O)C(=O)CSC[C@H](C(=O)O)NC(=O)[C@H](Cc2ccccc2)N(C)C(=O)[C@H](C)N(C)C(=O)[C@H](CC(C)C)NC(=O)[C@H](Cc2ccccc2)N(C)C(=O)[C@H](CCCNC(=N)N)NC(=O)[C@H](Cc2ccc(C(=O)O)cc2)NC(=O)[C@H](Cc2ccc(O)cc2)NC(=O)[C@H](C)N(C)C1=O [Myostatin_99_v182] ({CH2CO}-[Gly(N(CH2)3COOH)]A[Bip]Y[NMeF]I[NMeA]Y[Phe(4-COOH)]R[NMeF]L[NMeA][NMeF][dC]-OH; thioether N-15),26
